Measurements: PubChem BioAssay (NCI)
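The concentration for 50% growth inhibition is given as GI50. TGI marks complete inhibition of growth.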

What was measured:
Test in all cases: NCI-60 cell line screen, 384-well format
COLO 205 colon = test system: COLO 205 colon
NCI-H522 lung = test system: NCI-H522 lung
MDA-MB-468 breast = test system: MDA-MB-468 breast
UO-31 renal = test system: UO-31 renal
HCC-2998 colon = test system: HCC-2998 colon
IGROV1 ovarian = test system: IGROV1 ovarian
LOX IMVI melanoma = test system: LOX IMVI melanoma
OVCAR-4 ovarian = test system: OVCAR-4 ovarian
SK-MEL-5 melanoma = test system: SK-MEL-5 melanoma
KM12 colon = test system: KM12 colon
DU-145 prostate = test system: DU-145 prostate
MDA-MB-231 breast = test system: MDA-MB-231 breast
HS 578T breast = test system: HS 578T breast
HL-60(TB) leukemia = test system: HL-60(TB) leukemia
NCI-H460 NSCLC = test system: NCI-H460 NSCLC
MCF7 breast = test system: MCF7 breast
U251 glioblastoma = test system: U251 glioblastoma
HCT-116 colon = test system: HCT-116 colon
HOP-92 NSCLC = test system: HOP-92 NSCLC
EKVX NSCLC = test system: EKVX NSCLC
A549 NSCLC = test system: A549 NSCLC
786-0 renal = test system: 786-0 renal
SNB-19 CNS = test system: SNB-19 CNS
MALME-3M melanoma = test system: MALME-3M melanoma
OVCAR-8 ovarian = test system: OVCAR-8 ovarian
SN12C renal = test system: SN12C renal
CCRF-CEM leukemia = test system: CCRF-CEM leukemia
SK-OV-3 ovarian = test system: SK-OV-3 ovarian
SNB-75 CNS = test system: SNB-75 CNS
SF-539 CNS = test system: SF-539 CNS
NCI-H226 lung = test system: NCI-H226 lung
RPMI-8226 leukemia = test system: RPMI-8226 leukemia
OVCAR-3 ovarian = test system: OVCAR-3 ovarian
OVCAR-5 ovarian = test system: OVCAR-5 ovarian
HCT-15 colon = test system: HCT-15 colon
SW-620 colon = test system: SW-620 colon
NCI-H322M lung = test system: NCI-H322M lung
MDA-MB-435 melanoma = test system: MDA-MB-435 melanoma
PC-3 prostate = test system: PC-3 prostate
SK-MEL-28 melanoma = test system: SK-MEL-28 melanoma
SF-268 CNS = test system: SF-268 CNS
ACHN renal = test system: ACHN renal
NCI/ADR-RES ovarian = test system: NCI/ADR-RES ovarian
CAKI-1 renal = test system: CAKI-1 renal
M14 melanoma = test system: M14 melanoma
HOP-62 NSCLC = test system: HOP-62 NSCLC
HT29 colon = test system: HT29 colon
UACC-62 melanoma = test system: UACC-62 melanoma
TK-10 renal = test system: TK-10 renal
RXF 393 renal = test system: RXF 393 renal
MOLT-4 leukemia = test system: MOLT-4 leukemia
K-562 leukemia = test system: K-562 leukemia
SF-295 CNS = test system: SF-295 CNS
BT-549 breast = test system: BT-549 breast
UACC-257 melanoma = test system: UACC-257 melanoma
NCI-H23 lung = test system: NCI-H23 lung
T-47D breast = test system: T-47D breast
A498 renal = test system: A498 renal

## CNC(=O)c1cc2c(Oc3ccc(NC(=S)NC(=O)Cc4ccccc4)cc3F)ccnc2cc1OC
COLO 205 colon
  GI50: 12.1 µM
  TGI: > 100 µM
NCI-H522 lung
  GI50: 5.3 µM
  TGI: 27.1 µM
MDA-MB-468 breast
  GI50: 5.2 µM
  TGI: 25.2 µM
UO-31 renal
  GI50: 23 µM
  TGI: > 100 µM
HCC-2998 colon
  GI50: > 100 µM
  TGI: > 100 µM
IGROV1 ovarian
  GI50: 3.03 µM
  TGI: 17 µM
LOX IMVI melanoma
  GI50: 8.61 µM
  TGI: > 100 µM
OVCAR-4 ovarian
  GI50: 27.4 µM
  TGI: > 100 µM
SK-MEL-5 melanoma
  GI50: 8.55 µM
  TGI: 33.1 µM
KM12 colon
  GI50: 3.4 µM
  TGI: > 100 µM
DU-145 prostate
  GI50: 34.8 µM
  TGI: > 100 µM
MDA-MB-231 breast
  GI50: 7.39 µM
  TGI: 83.2 µM
HS 578T breast
  GI50: 2.49 µM
  TGI: 7.12 µM
HL-60(TB) leukemia
  GI50: 29.2 µM
  TGI: > 100 µM
NCI-H460 NSCLC
  GI50: 20.1 µM
  TGI: > 100 µM
MCF7 breast
  GI50: 14.5 µM
  TGI: > 100 µM
U251 glioblastoma
  GI50: 18.8 µM
  TGI: > 100 µM
HCT-116 colon
  GI50: 21 µM
  TGI: > 100 µM
HOP-92 NSCLC
  GI50: 1.5 µM
  TGI: 7.58 µM
EKVX NSCLC
  GI50: 28.9 µM
  TGI: > 100 µM
A549 NSCLC
  GI50: 12.3 µM
  TGI: > 100 µM
786-0 renal
  GI50: 8.3 µM
  TGI: 99.7 µM
SNB-19 CNS
  GI50: 49 µM
  TGI: > 100 µM
MALME-3M melanoma
  GI50: 15.9 µM
  TGI: > 100 µM
OVCAR-8 ovarian
  GI50: 36.2 µM
  TGI: > 100 µM
SN12C renal
  GI50: 2.37 µM
  TGI: 19.5 µM
CCRF-CEM leukemia
  GI50: 5.36 µM
  TGI: 28.8 µM
SK-OV-3 ovarian
  GI50: 9.39 µM
  TGI: 36.2 µM
SNB-75 CNS
  GI50: 1.9 µM
  TGI: 6.95 µM
SF-539 CNS
  GI50: 5.2 µM
  TGI: 27.8 µM
NCI-H226 lung
  GI50: 4.01 µM
  TGI: 45.7 µM
RPMI-8226 leukemia
  GI50: 14.7 µM
  TGI: > 100 µM
OVCAR-3 ovarian
  GI50: 17.7 µM
  TGI: > 100 µM
OVCAR-5 ovarian
  GI50: 19.9 µM
  TGI: 93.3 µM
HCT-15 colon
  GI50: 8.36 µM
  TGI: > 100 µM
SW-620 colon
  GI50: 47.2 µM
  TGI: > 100 µM
NCI-H322M lung
  GI50: 31.9 µM
  TGI: > 100 µM
MDA-MB-435 melanoma
  GI50: 31.1 µM
  TGI: > 100 µM
PC-3 prostate
  GI50: 10.9 µM
  TGI: > 100 µM
SK-MEL-28 melanoma
  GI50: 29.4 µM
  TGI: > 100 µM
SF-268 CNS
  GI50: 2.5 µM
  TGI: 6.66 µM
ACHN renal
  GI50: 5.11 µM
  TGI: 54.5 µM
NCI/ADR-RES ovarian
  GI50: 18.8 µM
  TGI: > 100 µM
CAKI-1 renal
  GI50: 4.55 µM
  TGI: 17.5 µM
M14 melanoma
  GI50: 8.36 µM
  TGI: > 100 µM
HOP-62 NSCLC
  GI50: 17.9 µM
  TGI: > 100 µM
HT29 colon
  GI50: 5.67 µM
  TGI: > 100 µM
UACC-62 melanoma
  GI50: 5.44 µM
  TGI: 95.4 µM
TK-10 renal
  GI50: 24.3 µM
  TGI: > 100 µM
RXF 393 renal
  GI50: 2.47 µM
  TGI: 6.88 µM
MOLT-4 leukemia
  GI50: 2.2 µM
  TGI: 10.6 µM
K-562 leukemia
  GI50: 0.486 µM
  TGI: 1.7 µM
SF-295 CNS
  GI50: 2.25 µM
  TGI: 37.2 µM
BT-549 breast
  GI50: 3.42 µM
  TGI: 9.66 µM
UACC-257 melanoma
  GI50: 18.9 µM
  TGI: > 100 µM
NCI-H23 lung
  GI50: 1.95 µM
  TGI: 23.7 µM
T-47D breast
  GI50: 5.05 µM
  TGI: 26 µM
A498 renal
  GI50: 8.59 µM
  TGI: 81.7 µM
